Oligonucleotides are written 5' to 3', each unit as a sugar letter and its base; * is a phosphorothioate linkage, no mark a phosphodiester; rarer units and linkages stand in square brackets, end groups in braces. Plain capitals give the bases only. e = 2'-O-(2-methoxyethyl) (MOE); [5mC] = 5-methylcytosine; d = 2'-deoxy (DNA)
tested on: mouse glucose-6-phosphatase translocase mRNA; assay: Antisense inhibition of mouse glucose-6-phosphatase translocase mRNA in primary mouse hepatocytes, 50 nM (Table 5); assay type: cell-based; conditions: 50 nM oligonucleotide, mRNA by real-time PCR, normalized with RIBOGREEN
Experimental: Primary mouse hepatocytes were prepared from CD-1 mice purchased from Charles River Labs. Primary mouse hepatocytes were routinely cultured in Hepatocyte Attachment Media supplemented with 10% fetal bovine serum (Invitrogen Life Technologies, Carlsbad, Calif.), 250 nM dexamethasone, and 10 nM bovine insulin (Sigma-Aldrich, St. Louis, Mo.). Cells were seeded into 96-well plates (Falcon-Primaria #353872, BD Biosciences, Bedford, Mass.) at a density of approximately 4,000-6,000 cells/well for use in oligomeric compound transfection experiments.
Quantitation of glucose 6-phosphatase translocase mRNA levels was accomplished by real-time quantitative PCR using the ABI PRISM™ 7600, 7700, or 7900 Sequence Detection System (PE-Applied Biosystems, Foster City, Calif.) according to manufacturer's instructions.
Prior to quantitative PCR analysis, primer-probe sets specific to the target gene being measured were evaluated for their ability to be “multiplexed” with a GAPDH amplification reaction. After isolation the RNA is subjected to sequential reverse transcriptase (RT) reaction and real-time PCR, both of which are performed in the same well. RT and PCR reagents were obtained from Invitrogen Life Technologies (Carlsbad, Calif.). […] The RT reaction was carried out by incubation for 30 minutes at 48° C. Following a 10 minute incubation at 95° C. to activate the PLATINUM® Taq, 40 cycles of a two-step PCR protocol were carried out: 95° C. for 15 seconds (denaturation) followed by 60° C. for 1.5 minutes (annealing/extension).
Gene target quantities obtained by RT, real-time PCR were normalized using either the expression level of GAPDH, a gene whose expression is constant, or by quantifying total RNA using RiboGreen™ (Molecular Probes, Inc. Eugene, Oreg.). GAPDH expression was quantified by RT, real-time PCR, by being run simultaneously with the target, multiplexing, or separately. Total RNA was quantified using RiboGreen™ RNA quantification reagent (Molecular Probes, Inc. Eugene, Oreg.).
A series of oligomeric compounds was designed to target different regions of mouse glucose-6-phosphatase translocase, using published sequences cited in Table 1. All compounds in Table 5 are chimeric oligonucleotides (“gapmers”) 20 nucleotides in length, composed of a central “gap” region consisting of 10 2′-deoxynucleotides, which is flanked on both sides (5′ and 3′) by five-nucleotide “wings”. The wings are composed of 2′-O-(2-methoxyethyl) nucleotides, also known as 2′-MOE nucleotides. The internucleoside (backbone) linkages are phosphorothioate throughout the oligonucleotide. All cytidine residues are 5-methylcytidines. The compounds were analyzed for their effect on gene target mRNA levels by quantitative real-time PCR as described in other examples herein, using the following primer-probe set designed to hybridize to mouse glucose-6-phosphatase translocase: • forward primer: […] (SEQ ID NO: 66) • reverse primer: CCATCCCAGCCATCATGAG (SEQ ID NO: 67) and the PCR probe was: FAM-[…]-TAMRA (SEQ ID NO: 68) where FAM is the fluorescent reporter dye and TAMRA is the quencher dye. Mouse target gene quantities were normalized by quantifying total RNA using RIBOGREEN™.
Data are from experiments in which primary mouse hepatocytes were treated with 50 nM of the antisense oligonucleotides of the present invention. A reduction in expression is expressed as percent inhibition in Table 5. If present, “N.D.” indicates “not determined”. The target regions to which these oligomeric compounds are inhibitory are herein referred to as “validated target segments.”

| Sequence | % Inhib [%] |
| --- | --- |
| AAACGTAAAGGTTCTGTGTT (eA*eA*eA*e[5mC]*eG*dT*dA*dA*dA*dG*dG*dT*dT*d[5mC]*dT*eG*eT*eG*eT*eT; antisense) [ISIS 148990] | 16 |
| AACCAGGATCCAGATCTTGG (eA*eA*e[5mC]*e[5mC]*eA*dG*dG*dA*dT*d[5mC]*d[5mC]*dA*dG*dA*dT*e[5mC]*eT*eT*eG*eG; antisense) [ISIS 148976] | 48 |
| AAGGCCTCCGACCTCGAGGG (eA*eA*eG*eG*e[5mC]*d[5mC]*dT*d[5mC]*d[5mC]*dG*dA*d[5mC]*d[5mC]*dT*d[5mC]*eG*eA*eG*eG*eG; antisense) [ISIS 148967] | 34 |
| AAGTCGGTTTGCCCTCTATA (eA*eA*eG*eT*e[5mC]*dG*dG*dT*dT*dT*dG*d[5mC]*d[5mC]*d[5mC]*dT*e[5mC]*eT*eA*eT*eA; antisense) [ISIS 149007] | 64 |
| AATGCTTCCTACAAGGCCTC (eA*eA*eT*eG*e[5mC]*dT*dT*d[5mC]*d[5mC]*dT*dA*d[5mC]*dA*dA*dG*eG*e[5mC]*e[5mC]*eT*e[5mC]; antisense) [ISIS 148968] | 26 |
| ACAAAGGAGAAGGTTTTGCG (eA*e[5mC]*eA*eA*eA*dG*dG*dA*dG*dA*dA*dG*dG*dT*dT*eT*eT*eG*e[5mC]*eG; antisense) [ISIS 148943] | 47 |
| ACAACTGTGCTGGCTCCACA (eA*e[5mC]*eA*eA*e[5mC]*dT*dG*dT*dG*d[5mC]*dT*dG*dG*d[5mC]*dT*e[5mC]*e[5mC]*eA*e[5mC]*eA; antisense) [ISIS 148982] | 69 |
| ACAGAGACAGCCCTGCCTTC (eA*e[5mC]*eA*eG*eA*dG*dA*d[5mC]*dA*dG*d[5mC]*d[5mC]*d[5mC]*dT*dG*e[5mC]*e[5mC]*eT*eT*e[5mC]; antisense) [ISIS 148970] | 78 |
| ACAGGGCCAGTGTGCTGCGC (eA*e[5mC]*eA*eG*eG*dG*d[5mC]*d[5mC]*dA*dG*dT*dG*dT*dG*d[5mC]*eT*eG*e[5mC]*eG*e[5mC]; antisense) [ISIS 148958] | 50 |
| ACCCACAAGGGCGGACTGCC (eA*e[5mC]*e[5mC]*e[5mC]*eA*d[5mC]*dA*dA*dG*dG*dG*d[5mC]*dG*dG*dA*e[5mC]*eT*eG*e[5mC]*e[5mC]; antisense) [ISIS 148964] | 0 |
| AGACCACAAGGTAGCCAGTG (eA*eG*eA*e[5mC]*e[5mC]*dA*d[5mC]*dA*dA*dG*dG*dT*dA*dG*d[5mC]*e[5mC]*eA*eG*eT*eG; antisense) [ISIS 148961] | 36 |
| AGCCATCATGAGTAGCAATA (eA*eG*e[5mC]*e[5mC]*eA*dT*d[5mC]*dA*dT*dG*dA*dG*dT*dA*dG*e[5mC]*eA*eA*eT*eA; antisense) [ISIS 148973] | 35 |
| AGCCCCTGTGCCAGACCATT (eA*eG*e[5mC]*e[5mC]*e[5mC]*d[5mC]*dT*dG*dT*dG*d[5mC]*d[5mC]*dA*dG*dA*e[5mC]*e[5mC]*eA*eT*eT; antisense) [ISIS 148953] | 58 |
| AGGGTATTCATGAGAGTGGT (eA*eG*eG*eG*eT*dA*dT*dT*d[5mC]*dA*dT*dG*dA*dG*dA*eG*eT*eG*eG*eT; antisense) [ISIS 149006] | 36 |
| AGGTTCTGTGTTAGCCAGAG (eA*eG*eG*eT*eT*d[5mC]*dT*dG*dT*dG*dT*dT*dA*dG*d[5mC]*e[5mC]*eA*eG*eA*eG; antisense) [ISIS 148989] | 58 |
| ATAGGCCGTGGCGAGGGTTC (eA*eT*eA*eG*eG*d[5mC]*d[5mC]*dG*dT*dG*dG*d[5mC]*dG*dA*dG*eG*eG*eT*eT*e[5mC]; antisense) [ISIS 148972] | 36 |
| ATCTTGGGTGAGTCACTGGT (eA*eT*e[5mC]*eT*eT*dG*dG*dG*dT*dG*dA*dG*dT*d[5mC]*dA*e[5mC]*eT*eG*eG*eT; antisense) [ISIS 148975] | 42 |
